Measurements from patent publication US11530244B2, “Cyclic polypeptides for PCSK9 inhibition” (priority 2018, dated 2022).
Starred links: 1 amine or outer side, 2 acyl side, 3 side chain; linkers in the order of their positions; H or OH if unused. Positions of bridges follow the written chain, without caps; N, C: chain ends. Non-standard residues stand in square brackets, D forms with d. Residues, ends and D or L forms follow the SMILES beside them. X52 = O=C([C@H](Cc1cc2cc(F)ccc2[nH]1)N[*:1])[*:2]; NHCH2C6H4(p)CH2CH2NH = c1cc(CN[*:1])ccc1CCN[*:2]; X58 = O=C([C@@H]1[C@H](OCC=[*:3])CCN1[*:1])[*:2]; Ala(imidazol-2-yl) = N[C@@H](Cc1ncc[nH]1)C(=O)O; Trp(5-F) = N[C@@H](Cc1c[nH]c2ccc(F)cc12)C(=O)O; X55 = O=C(CCCCCC(=O)[*:1])NCc1ccc(CCN[*:2])cc1; X3 = O=C(CCSCc1cc(F)cc(CSCCN[*:1])c1)[*:2]; X57 = O=C([C@@H](CCCCC=[*:3])N[*:1])[*:2]; Lys(Me3) = C[N+](C)(C)CCCC[C@H](N)C(=O)O; NMeW = CN[C@@H](Cc1c[nH]c2ccccc12)C(=O)O; X12 = O=C([C@H](CCCCC=[*:3])N[*:1])[*:2]; X4 = O=C(CCSCc1cccc(CSCCN[*:1])c1)[*:2]; X64 = C[C@H](N[*:1])c1ncc(C(=O)[*:2])s1; mXylylene = c1cc(C[*:1])cc(C[*:2])c1; NMeY = CN[C@@H](Cc1ccc(O)cc1)C(=O)O; Lys(Me2) = CN(C)CCCC[C@H](N)C(=O)O; Lys(Me) = CNCCCC[C@H](N)C(=O)O; αMeP = C[C@@]1(C(=O)O)CCCN1; NMeA = CN[C@@H](C)C(=O)O; Aze = O=C(O)[C@@H]1CCN1; βAla = NCCC(=O)O; Mpa = O=C(O)CCS; Sar = CNCC(=O)O

What follows are compounds tested against human PCSK9 / human LDLR EGFa domain interaction (Homo sapiens (Human), UniProt Q8NBP7) (assay: TR-FRET assay of inhibition of the PCSK9-LDLR protein-protein interaction). Details: TR-FRET, 20 nM human PCSK9, 20 nM human LDLR EGFa domain, 2 hours room temperature; read-out: IC50.
Format: binding
Method: A time-resolved fluorescence resonance energy (TR-FRET) assay was used to measure inhibition of the PCSK9-LDLR protein-protein interaction. Briefly, 20 nM avitag-biotinylated human PCSK9 was incubated with 20 nM his-tagged human LDLR EGFa domain in the presence of 5 nM LANCE Ulight Streptavidin (Perkin Elmer) and 5 nM europium-Anti-6×His (Perkin Elmer) for 2 hours covered at room temperature in buffer containing 50 mM HEPES, 150 mM NaCl, 5 mM CaCl2), 0.01% BSA and 0.01% Surfactant P20. Compounds were tested in dose-response and concentrations giving half-maximal inhibition calculated using a 4-parameter fit equation.

Sequence of human PCSK9 / human LDLR EGFa domain interaction (Q8NBP7 153-692): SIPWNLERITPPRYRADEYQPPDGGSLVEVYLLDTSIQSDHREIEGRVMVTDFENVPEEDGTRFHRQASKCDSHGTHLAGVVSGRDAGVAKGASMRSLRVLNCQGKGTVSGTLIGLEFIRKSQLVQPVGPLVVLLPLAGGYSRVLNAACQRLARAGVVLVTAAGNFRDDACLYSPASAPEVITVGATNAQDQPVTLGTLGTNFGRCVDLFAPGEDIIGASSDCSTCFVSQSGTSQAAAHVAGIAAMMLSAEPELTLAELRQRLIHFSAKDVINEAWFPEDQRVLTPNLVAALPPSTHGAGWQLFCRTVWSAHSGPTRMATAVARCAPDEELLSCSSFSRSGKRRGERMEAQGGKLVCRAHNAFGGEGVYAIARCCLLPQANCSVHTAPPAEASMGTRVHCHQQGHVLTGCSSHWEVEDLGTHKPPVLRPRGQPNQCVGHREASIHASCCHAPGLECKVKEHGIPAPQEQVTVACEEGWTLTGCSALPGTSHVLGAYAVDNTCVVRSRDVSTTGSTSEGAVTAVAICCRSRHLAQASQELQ
Sequence of human PCSK9 / human LDLR EGFa domain interaction (Q8NBP7 31-152 partner): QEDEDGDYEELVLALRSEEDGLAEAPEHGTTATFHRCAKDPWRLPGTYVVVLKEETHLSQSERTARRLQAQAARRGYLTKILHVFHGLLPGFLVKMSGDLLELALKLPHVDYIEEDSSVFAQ

Row | Structure (SMILES) | IC50 [nM]
1 | C[C@@H]1NC(=O)[C@@H]2CCN2C(=O)[C@H](Cc2c[nH]c3ccc(F)cc23)NC(=O)[C@H](Cc2c[nH]c3ccc(F)cc23)NC(=O)[C@@H](C)NC(=O)[C@H](CCCCN)NC(=O)CCSCc2cccc(c2)CSCCNC(=O)[C@]2(C)CCCN2C(=O)[C@H](Cc2ccc(O)cc2)NC1=O [Compound 002] (cyclo(AY[αMeP][X4]K[dA][Trp(5-F)][Trp(5-F)][Aze])) | 21000 to 50000
2 | COc1ccc(C[C@@H]2NC(=O)CCNC(=O)[C@@H]3CCCN3C(=O)[C@H](Cc3c[nH]c4ccc(F)cc34)NC(=O)[C@H](Cc3cc4cc(F)ccc4[nH]3)NC(=O)[C@@H](C)NC(=O)[C@H](CCCCN)NC(=O)CCSCc3cccc(c3)CSCCNC(=O)[C@]3(C)CCCN3C2=O)cc1 [Compound 003] (cyclo(K[dA][X52][Trp(5-F)]P[βAla]Y(Me)[αMeP][X4])) | 1000 to 12100
3 | C[C@@H](O)[C@@H]1NC(=O)[C@@H]2CCCN2C(=O)[C@H](Cc2c[nH]c3ccc(F)cc23)NC(=O)[C@H](Cc2c[nH]c3ccc(F)cc23)NC(=O)CNC(=O)[C@H](CCCCN)NC(=O)CCSCc2cccc(c2)CSC[C@@H](C(N)=O)NC(=O)[C@]2(C)CCCN2C(=O)[C@H](Cc2ccc(O)cc2)NC1=O [Compound 014] ([Mpa]KG[Trp(5-F)][Trp(5-F)]PTY[αMeP]C-NH2; linker 1-10 via mXylylene) | 100 to 1000
4 | C[C@H]1C(=O)N(C)[C@@H](Cc2ccc(O)cc2)C(=O)N2CCC[C@H]2C(=O)N[C@H](C(N)=O)CSCc2cccc(c2)CSCCC(=O)N[C@@H](CCCCN)C(=O)N(C)CC(=O)N(C)[C@@H](Cc2c[nH]c3ccccc23)C(=O)N[C@@H](Cc2c[nH]c3ccccc23)C(=O)N[C@@H](CC(=O)O)C(=O)N1C [Compound 015] ([Mpa]K[Sar][NMeW]WD[NMeA][NMeY]PC-NH2; linker 1-10 via mXylylene) | 1000 to 12100
5 | C[C@H]1NC(=O)[C@H](Cc2c[nH]c3ccc(F)cc23)NC(=O)[C@H](Cc2c[nH]c3ccc(F)cc23)NC(=O)CNC(=O)[C@H](CCCCN)NC(=O)CCSCc2cccc(c2)CSC[C@@H](C(N)=O)NC(=O)[C@]2(C)CCCN2C(=O)[C@H](Cc2ccc(O)cc2)NC(=O)[C@H](Cc2cnc[nH]2)NC1=O [Compound 032] ([Mpa]KG[Trp(5-F)][Trp(5-F)][dA]HY[αMeP]C-NH2; linker 1-10 via mXylylene) | 100 to 1000
6 | C[C@H]1NC(=O)[C@H](CC(=O)O)NC(=O)[C@H](Cc2c[nH]c3ccc(F)cc23)NC(=O)[C@H](Cc2c[nH]c3ccc(F)cc23)NC(=O)CNC(=O)[C@H](CCCCN)NC(=O)CCSCc2cccc(c2)CSC[C@@H](C(N)=O)NC(=O)[C@]2(C)CCCN2C(=O)[C@H](Cc2ccc(O)cc2)NC1=O [Compound 033] ([Mpa]KG[Trp(5-F)][Trp(5-F)]D[dA]Y[αMeP]C-NH2; linker 1-10 via mXylylene) | 1000 to 12100

What follows are compounds tested against PCSK9 (Homo sapiens (Human), UniProt Q8NBP7) (assay: PCSK9 Alexa FRET Standard assay (displacement of AlexaFluor647 tagged cyclic peptide Reagent A)). Details: PCSK9 Alexa FRET Standard assay, 0.5 nM PCSK9, 20 nM AF cyclic peptide Reagent A; read-out: IC50.
Format: binding
In short: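 TR-FRET displacement: 0.5 nM biotinylated PCSK9 with 1.25 nM Strep-Eu and 20 nM AlexaFluor-tagged cyclic peptide (final) in 50 mM HEPES pH 7.4, 0.15 M NaCl, 5 mM CaCl2, 0.01% BSA, 0.01% P20, ≥2 h at room temperature. IC50 from sigmoidal fit, converted to Ki via peptide KD; falling Eu counts flagged false positives.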

Sequence of PCSK9 (Q8NBP7 153-692): as the sequence (Q8NBP7 153-692) above

Row | IC50 [nM] | Structure (SMILES)
7 | 0.11 to 100 | C[C@@H]1NC(=O)[C@H](Cc2c[nH]c3ccc(F)cc23)NC(=O)[C@H](Cc2c[nH]c3ccc(F)cc23)NC(=O)[C@@H](C)NC(=O)[C@H](CCCCN)NC(=O)CCSCc2cccc(c2)CSC[C@@H](C(N)=O)NC(=O)[C@]2(C)CCCN2C(=O)[C@H](Cc2ccc(O)cc2)NC(=O)C2=CN=C1S2 [Compound 460] ([Mpa]K[dA][Trp(5-F)][Trp(5-F)][X64]Y[αMeP]C-NH2; linker 1-9 via mXylylene)
8 | 1000 to 12100 | COc1ccc(C[C@@H]2NC(=O)[C@H](Cc3ncc[nH]3)NC(=O)[C@H](CC(=O)O)NC(=O)[C@H](Cc3c[nH]c4ccc(F)cc34)NC(=O)[C@H](Cc3c[nH]c4ccc(F)cc34)NC(=O)[C@@H](C)NC(=O)[C@H](CCCC[N+](C)(C)C)NC(=O)CCSCc3cc(F)cc(c3)CSCCNC(=O)[C@]3(C)CCCN3C2=O)cc1 [Compound 462] (cyclo(D[Ala(imidazol-2-yl)]Y(Me)[αMeP][X3][Lys(Me3)][dA][Trp(5-F)][Trp(5-F)]))
9 | 100 to 1000 | COc1ccc(C[C@@H]2NC(=O)[C@H](Cc3ncc[nH]3)NC(=O)[C@H](CC(=O)O)NC(=O)[C@H](Cc3c[nH]c4ccc(F)cc34)NC(=O)[C@H](Cc3c[nH]c4ccc(F)cc34)NC(=O)[C@@H](C)NC(=O)[C@H](CCCCN(C)C)NC(=O)CCSCc3cccc(c3)CSCCNC(=O)[C@]3(C)CCCN3C2=O)cc1 [Compound 463] (cyclo(D[Ala(imidazol-2-yl)]Y(Me)[αMeP][X4][Lys(Me2)][dA][Trp(5-F)][Trp(5-F)]))
10 | 21000 to 50000 | COc1ccc(C[C@@H]2NC(=O)[C@H](Cc3ncc[nH]3)NC(=O)[C@H](CC(=O)O)NC(=O)[C@H](Cc3c[nH]c4ccc(F)cc34)NC(=O)[C@H](Cc3c[nH]c4ccc(F)cc34)NC(=O)[C@@H](C)NC(=O)[C@H](CCCCN(C)C)NC(=O)CCSCc3cccc(c3)CSCCNC(=O)[C@]3(C)CCCN3C2=O)cc1 [Compound 464] (cyclo(D[Ala(imidazol-2-yl)]Y(Me)[αMeP][X4][Lys(Me2)][dA][Trp(5-F)][Trp(5-F)]))
11 | 1000 to 12100 | COc1ccc(C[C@@H]2NC(=O)[C@H](Cc3ncc[nH]3)NC(=O)[C@H](CC(=O)O)NC(=O)[C@H](Cc3c[nH]c4ccc(F)cc34)NC(=O)[C@H](Cc3c[nH]c4ccc(F)cc34)NC(=O)[C@@H](C)NC(=O)[C@H](CCCCN(C)C)NC(=O)CCSCc3cc(F)cc(c3)CSCCNC(=O)[C@]3(C)CCCN3C2=O)cc1 [Compound 465] (cyclo(D[Ala(imidazol-2-yl)]Y(Me)[αMeP][X3][Lys(Me2)][dA][Trp(5-F)][Trp(5-F)]))
12 | 1000 to 12100 | CNCCCC[C@@H]1NC(=O)CCSCc2cc(F)cc(c2)CSCCNC(=O)[C@]2(C)CCCN2C(=O)[C@H](Cc2ccc(OC)cc2)NC(=O)[C@H](Cc2ncc[nH]2)NC(=O)[C@H](CC(=O)O)NC(=O)[C@H](Cc2c[nH]c3ccc(F)cc23)NC(=O)[C@H](Cc2c[nH]c3ccc(F)cc23)NC(=O)[C@@H](C)NC1=O [Compound 468] (cyclo(D[Ala(imidazol-2-yl)]Y(Me)[αMeP][X3][Lys(Me)][dA][Trp(5-F)][Trp(5-F)]))
13 | 21000 to 50000 | CC(=O)N[C@H]1CCCC/C=C/CO[C@@H]2CCN(C(=O)[C@H](Cc3ccc(O)cc3)NC(=O)[C@H](Cc3cnc[nH]3)NC(=O)[C@H](CC(=O)O)NC(=O)[C@H](Cc3c[nH]c4ccc(F)cc34)NC(=O)[C@H](Cc3c[nH]c4ccc(F)cc34)NC(=O)CNC(=O)[C@H](CCCCN)NC1=O)[C@@H]2C(N)=O [Compound 469] (Ac-[X12]KG[Trp(5-F)][Trp(5-F)]DHY[X58]-NH2; staple (E) 1-9)
14 | 0.11 to 100 | CC(=O)N[C@@H]1CCCC/C=C\CO[C@@H]2CCN(C(=O)[C@H](Cc3ccc(O)cc3)NC(=O)[C@H](Cc3cnc[nH]3)NC(=O)[C@H](CC(=O)O)NC(=O)[C@H](Cc3c[nH]c4ccc(F)cc34)NC(=O)[C@H](Cc3c[nH]c4ccc(F)cc34)NC(=O)CNC1=O)[C@@H]2C(N)=O [Compound 471] (Ac-[X57]G[Trp(5-F)][Trp(5-F)]DHY[X58]-NH2; staple (Z) 1-8)
15 | 0.11 to 100 | CC(C)C[C@H]1C(=O)N[C@@H](Cc2ccc(O)cc2)C(=O)N2CCC[C@@]2(C)C(=O)N[C@H](C(N)=O)CSCc2cccc(c2)CSCCC(=O)N[C@@H](CCCCN)C(=O)NCC(=O)N[C@@H](Cc2c[nH]c3ccc(F)cc23)C(=O)N[C@@H](Cc2c[nH]c3ccc(F)cc23)C(=O)N[C@H]2CCN1C2=O [Compound 472]
16 | 0.11 to 100 | COc1ccc(C[C@@H]2NC(=O)[C@@H]3CCCC(=O)N[C@@H]4C[C@H](C(=O)N3)N(C4)C(=O)[C@H](Cc3c[nH]c4ccc(F)cc34)NC(=O)[C@H](Cc3c[nH]c4ccc(F)cc34)NC(=O)[C@@H](C)NC(=O)[C@H](CCCCN)NC(=O)CCSCc3cccc(c3)CSCCNC(=O)[C@]3(C)CCCN3C2=O)cc1 [Compound 522]
17 | 0.11 to 100 | COc1ccc(C[C@@H]2NC(=O)[C@H]([C@H](C)O)NC(=O)[C@@H]3CCCc4cn(nn4)CCCC[C@H](NC(=O)[C@@H](C)NC(=O)[C@H](CCCCN)NC(=O)CCSCc4cccc(c4)CSCCNC(=O)[C@]4(C)CCCN4C2=O)C(=O)N[C@@H](Cc2c[nH]c4ccc(F)cc24)C(=O)N3)cc1 [Compound 526]

The remaining lines, values behind:

Row | Structure (SMILES) | IC50 [nM]
18 | COc1ccc(C[C@@H]2NC(=O)[C@H](Cc3cnc[nH]3)NC(=O)[C@H](CC(=O)O)NC(=O)[C@H](Cc3c[nH]c4ccc(F)cc34)NC(=O)[C@H](Cc3c[nH]c4ccc(F)cc34)NC(=O)[C@@H](C)NC(=O)[C@H](NC(C)=O)CCC(=O)NCc3ccc(cc3)CCNC(=O)C[C@@H](C(N)=O)NC(=O)[C@]3(C)CCCN3C2=O)cc1 [Compound 451] (Ac-[dE][dA][Trp(5-F)][Trp(5-F)]DHY(Me)[αMeP]D-NH2; linker 1-9 via NHCH2C6H4(p)CH2CH2NH) | 100 to 1000
19 | COc1ccc(C[C@@H]2NC(=O)[C@H](Cc3cnc[nH]3)NC(=O)[C@H](CC(=O)O)NC(=O)[C@H](Cc3c[nH]c4ccc(F)cc34)NC(=O)[C@H](Cc3c[nH]c4ccc(F)cc34)NC(=O)[C@@H](C)NC(=O)[C@H](CCCC[N+](C)(C)C)NC(=O)CCSCc3cccc(c3)CSCCNC(=O)[C@]3(C)CCCN3C2=O)cc1 [Compound 461] (cyclo(DHY(Me)[αMeP][X4][Lys(Me3)][dA][Trp(5-F)][Trp(5-F)])) | 21000 to 50000
20 | COc1ccc(C[C@@H]2NC(=O)[C@H](Cc3cnc[nH]3)NC(=O)[C@H](CC(=O)O)NC(=O)[C@H](Cc3c[nH]c4ccc(F)cc34)NC(=O)[C@H](Cc3c[nH]c4ccc(F)cc34)NC(=O)[C@H](C)NC(=O)CCCCCC(=O)NCc3ccc(cc3)CCNC(=O)[C@]3(C)CCCN3C2=O)cc1 [Compound 470] (A[Trp(5-F)][Trp(5-F)]DHY(Me)[αMeP]; linker N-C via X55) | 0.11 to 100
